Laboratory results reported in patent publication US20190151277A1, “USES OF BIOACTIVE LIPIDS” (NESTEC S.A., priority 2014, published 2019).

Columns and labels:
Format in all cases: cell-based
[1] = system: human islets; test: Acute insulin secretion assay with human islets from a lean non-diabetic donor; conditions: 2 mM and 20 mM glucose, 15-deoxy-Δ12,14-PGJ2-2-G at 250 μM
Procedure: Insulin secretion assay was performed in low glucose (2 mM) and high glucose (20 mM) conditions with human islets from a lean non-diabetic donor. […] Both bioactive lipids improved glucose stimulated insulin release acutely. The results are expressed as ng secreted insulin per 10 islets.

[2] = system: mouse islets; test: GSIS in mouse islets after 72 hours treatment; conditions: 72 hours at 50 μM, 2 mM and 20 mM glucose
Procedure: (§1) After PGD2G treatment, glucose stimulated insulin release was measured in low glucose (2 mM) and high glucose (20 mM) conditions in KRB solution. The insulin release is expressed as released from the total content of insulin in Ins1E cells and mouse islets.

[3] = system: Ins1E cells; test: GSIS in Ins1E cells after 72 hours treatment; conditions: 72 hours at 50 μM, 2 mM and 20 mM glucose
Procedure: as §1

[4] = Acute glucose stimulated insulin release normalized to total protein content; conditions: 2 mM and 20 mM glucose, 470 μM, 2.3 nM, 230 nM bioactive lipid
Procedure: Glucose stimulated insulin release was measured in low glucose (2 mM) and high glucose (20 mM) in the presence of various concentrations (470 μM, 2.3 nM, 230 nM) of the bioactive lipid. The bioactive lipid improved glucose stimulated insulin release particularly at concentrations from 2.5 nM to 250 nM. The result are presented as insulin release normalized to total protein content.

[5] = system: human islets; test: Beta cell function and incretin response in human islets from donors; conditions: lean type 2 diabetic and non-diabetic obese donors, 50 μM, 72 hours
Procedure: Glucose stimulated insulin release was measured in low glucose (2 mM), high glucose (20 mM) and high glucose (20 mM)+0.1 uM Exendin4

[6] = system: human islets; test: Glucose stimulated insulin release in human islets after cytokine-induced dysfunction; conditions: human islets of three donors, 50 μM 72 hours, cytokine mix last 48 hours
Procedure: During the last 48 hours, the cytokine mix was added (IL1beta 10 ng/ml, TNF alpha 25 ng/ml and INFgamma 10 ng/ml). Glucose stimulated insulin release was measured in low glucose (2 mM) and high glucose (20 mM) conditions. The bioactive lipid was able to improve glucose stimulated insulin release after cytokine-induced dysfunction.

[7] = system: human H716 cells; test: GLP-1 secretion assay in human H716 cells; conditions: 0.23 nM to 2.3 nM
Procedure: GLP-1 secretion assay was performed using human H716 cells in the presence of various concentration of the bioactive lipid from 0.23 nM to 2.3 nM.

Row | SMILES | insulin secretion (ng secreted insulin per 10 islets) [1] | glucose stimulated insulin release (of total insulin content) [2] | glucose stimulated insulin release (of total insulin content) [3] | insulin release normalized to total protein content [4] | beta cell function (glucose stimulated insulin release) [5] | incretin response (20 mM glucose + 0.1 uM Exendin4) [5] | glucose stimulated insulin release after cytokine-induced dysfunction [6] | GLP1 release normalized to total protein content [7]
1 | CCCCC/C=C/C=C1/C(=O)C=C[C@@H]1C/C=C\CCCC(=O)OC(CO)CO [15-deoxy-Δ12,14-PGJ2-2-G, 11-oxo-5Z,9,12E,4E-prostatetraenoic acid-2-glycerol ester] | increased insulin secretion both with and without the presence of a white adipose tissue (WAT) fraction | – | – | – | – | – | – | –
2 | CCCCC[C@H](O)/C=C/[C@H]1C(=O)C[C@H](O)[C@@H]1C/C=C\CCCC(=O)OCC(O)CO (stereo partly drawn) [PGD2G, 9a, 15S-dihydroxy-11-oxo-5Z,13E-prostadienoic acid 1-glyceryl ester] | also increased insulin secretion compared to control tissues | increased insulin secretion | increased insulin secretion | acutely stimulated insulin secretion upon stimulation with glucose | improved beta cell function | improved | protected human islets against cytokine induced dysfunction | increased GLP1 secretion
